The results in this text go back to ChEMBL document CHEMBL4483862, “Open-source discovery of chemical leads for next-generation chemoprotective antimalarials” (2018).

In the experiment the test system is Plasmodium berghei. Kind of experiment: Luciferase/luciferin-expressing antifolate-resistant parasites were used to infect a culture of HepG2 cells that were pre-incubated with compounds. Infected hepatocytes emit light due to the luciferase reaction. Assay results are presented as the percent inhibition of light emission compared to control. […]. The note with it: sporozoite; for IC90: read-out: LUCIFERASE INFECTION ASSAY - IC90. In kind it is functional.

[1] abbreviates: read-out: LUCIFERASE INFECTION ASSAY - IC50.

A value given as a limit tells only on which side of the number the result lay.

As for `CN(C)CCNc1nc(Oc2cccc3ccccc23)c2sccc2n1`, the IC90 was over 9.05 µM. Further, the IC50 (PBLUC_HILL_SLOPE 11.6, PBLUC_R_SQUARED 0.0493, read-out: LUCIFERASE INFECTION ASSAY - IC50) was determined as 8.94 µM.

For the compound `CC(C)c1ccc(C2C3CCc4ccccc4C3=NN2C)cc1` (stereo unspecified), the IC90 turned out to be 0.553 µM. Further, the IC50 under setting [1] is 0.0716 µM.

Regarding `O=C(c1ccccc1)c1cc(-c2nc3ccccc3[nH]2)c(-c2ccccc2)n2c1nc1ccccc12`, the IC90 is over 10 µM. The IC50 (FFLUC_HILL_SLOPE 3.37, FFLUC_R_SQUARED 0.587, PBLUC_HILL_SLOPE 3.5, PBLUC_R_SQUARED 0.455, read-out: LUCIFERASE INFECTION ASSAY - IC50) stood at 6.85 µM.

As to `COc1cccc(C(=O)Nc2ccc(Sc3cccc(C(F)(F)F)c3)c(C#N)c2)c1`, the IC90 is over 7.7 µM. For the same compound, the IC50 under setting [1] is over 7.7 µM.

For the compound `CSc1sc(C(=O)Nc2ccc(F)c(Cl)c2)c(-c2ccc(Cl)cc2)c1C#N`, the IC90 is over 7.55 µM. The IC50 (FFLUC_HILL_SLOPE 1.91, FFLUC_R_SQUARED 0.467, read-out: LUCIFERASE INFECTION ASSAY - IC50) was over 7.55 µM.

Turning to `O=C(Nc1nc(-c2ccccn2)cs1)c1cc([N+](=O)[O-])ccc1N1CCC(Cc2ccccc2)CC1`, the IC90 is over 10 µM. Further, the IC50 under setting [1] is over 10 µM.

In the case of `CN1CCN(c2ccc(-c3cn4c(-c5ccccc5)cnc4cn3)cn2)CC1`, the IC90 amounted to 7.71 µM. Also, the IC50 (PBLUC_HILL_SLOPE 3.35, PBLUC_R_SQUARED 0.57, read-out: LUCIFERASE INFECTION ASSAY - IC50) was 4 µM.

As for `N#CC1(C#N)C2C=CC(C2)C1(C#N)C#N`, the IC90 is over 17 µM. In addition, the IC50 (PBLUC_HILL_SLOPE 1.54, PBLUC_R_SQUARED 0.0374, read-out: LUCIFERASE INFECTION ASSAY - IC50) was over 17 µM.

In the case of `O=C(COc1ccccc1)Nc1nc2ccccn2c1C(=O)NC1CCCCC1`, the IC90 came out at 6.99 µM. Also, the IC50 (HEPG2TOX_HILL_SLOPE 7.86, HEPG2TOX_R_SQUARED 0.377, PBLUC_HILL_SLOPE 5.91, PBLUC_R_SQUARED 0.352, read-out: LUCIFERASE INFECTION ASSAY - IC50) was found to be 4.82 µM.

In the case of `COc1ccc(C(CNc2nc(-c3cccnc3)nc3ccccc23)c2c[nH]c3ccccc23)cc1` (stereo unspecified), the IC90 is over 10 µM. Further, where the note is “PBLUC_HILL_SLOPE 8.92, PBLUC_R_SQUARED 0.072, read-out: LUCIFERASE INFECTION ASSAY - IC50”, the IC50 is over 10 µM.

Take `O=C(Nc1ccc(OC(F)(F)F)cc1)Nc1cncc(C(F)(F)F)c1`: the concentration for an effect of 90% (IC90) worked out at 6.72 µM. Besides, the concentration for half-maximal inhibition (IC50) (FFLUC_HILL_SLOPE 0.707, FFLUC_R_SQUARED 0.204, PBLUC_HILL_SLOPE 4.06, PBLUC_R_SQUARED 0.292, read-out: LUCIFERASE INFECTION ASSAY - IC50) amounted to 3.91 µM.

For the compound `CCN(CC)S(=O)(=O)c1ccc(OC(C)C)c(NC(=O)c2cc(C3CC3)nc3c2cnn3C(C)C)c1`, the IC90 was over 10 µM. For the same compound, the IC50 (FFLUC_HILL_SLOPE 16.5, FFLUC_R_SQUARED 0.255, read-out: LUCIFERASE INFECTION ASSAY - IC50) is over 10 µM.

As to `COc1ccc(N2CCN(CCCNS(=O)(=O)c3ccc(Cl)cc3C(F)(F)F)CC2)cc1`, the IC90 was over 10 µM. The IC50 (PBLUC_HILL_SLOPE 0.0792, 17.3, PBLUC_R_SQUARED 0.0344, 0.317, read-out: LUCIFERASE INFECTION ASSAY - IC50) was 9.67 µM.

Turning to `Cc1ccc(N(Cc2ccccc2)C(=O)C2CCN(S(=O)(=O)c3c(Cl)cccc3Cl)CC2)cc1`, the IC90 is over 10 µM. The IC50 under setting [1] was over 10 µM.

Take `FC(F)(F)c1nnc2ccc(Oc3ccc(Cl)c4ccccc34)nn12`: the IC90 is over 10 µM. Moreover, under setting [1], the half-maximal inhibitory concentration (IC50) is over 10 µM.

In the case of `O=C(Nc1cccnc1)C1=COC2=NC(=O)N(Cc3ccccc3C(F)(F)F)CCN12`, the IC90 was over 10 µM. Besides, the IC50 under setting [1] is over 10 µM.

As for `CCCN1CCc2c(sc3c2c(NCCc2ccccc2)nc2nnnn23)C1`, the 90% effect concentration (IC90) was over 8.39 µM. The IC50 under setting [1] is over 8.39 µM.

In the case of `CNc1nc2cnc(Nc3cccc(C)c3)cc2n1-c1cccc(C(F)(F)F)c1`, the IC90 was over 10 µM. The IC50 (HEPG2TOX_HILL_SLOPE 1.54, HEPG2TOX_R_SQUARED 0.691, PBLUC_HILL_SLOPE 2.02, PBLUC_R_SQUARED 0.694, read-out: LUCIFERASE INFECTION ASSAY - IC50) came to 4.3 µM.

For `CC(C)OC(=O)c1nnsc1S(=O)(=O)c1ccc(Cl)cc1`, the IC90 was over 9.52 µM. For the same compound, the IC50 under setting [1] is over 9.52 µM.

Turning to `CC(C)(C)c1cc(C(=O)OCC(=O)N2CCCCC2)cc(C(C)(C)C)c1`, the IC90 is over 10 µM. In addition, the IC50 (PBLUC_HILL_SLOPE 1.88, PBLUC_R_SQUARED 0.16, read-out: LUCIFERASE INFECTION ASSAY - IC50) was 8.44 µM.

Take `FC(F)(F)c1cc(NCc2ccccc2C(F)(F)F)nc(-c2ccccn2)n1`: the 90% effect concentration (IC90) worked out at 7.12 µM. For the same compound, for the setting “PBLUC_HILL_SLOPE 3.13, PBLUC_R_SQUARED 0.711, read-out: LUCIFERASE INFECTION ASSAY - IC50”, the IC50 was found to be 3.52 µM.

As for `CCCCCCc1ccc(-c2csc(NC(=O)CSc3nnc(C(F)(F)F)n3C)n2)cc1`, the IC90 was over 10 µM. Under setting [1], the IC50 was over 10 µM.

In the case of `Cc1cnc(NC(=O)c2ccc(N(C)C3CCCCC3)cc2)s1`, the IC90 was found to be 0.327 µM. Besides, the IC50 (HEPG2TOX_HILL_SLOPE 7.67, HEPG2TOX_R_SQUARED 0.65, PBLUC_HILL_SLOPE 1.69, PBLUC_R_SQUARED 0.349, read-out: LUCIFERASE INFECTION ASSAY - IC50) was determined as 0.0892 µM.

In the case of `COC(=O)c1c(NC(=O)c2ccco2)c2cc(NC3CCN(C(C)C)CC3)cnc2n1CCC(C)C`, the IC90 is over 6.66 µM. In addition, the IC50 (PBLUC_HILL_SLOPE 4.28, PBLUC_R_SQUARED 0.61, read-out: LUCIFERASE INFECTION ASSAY - IC50) came out at 4.64 µM.

As for `O=C1c2ccccc2C(=Cc2ccsc2)c2ccccc21`, the IC90 is over 10 µM. Moreover, where the note is “PBLUC_HILL_SLOPE 16.4, 0.310, PBLUC_R_SQUARED 0.161, 0.532, read-out: LUCIFERASE INFECTION ASSAY - IC50”, the IC50 is 4.9 µM.

On to `Cc1c(C)c(C)c2[nH]c(S)nc2c1C`, for which the concentration for an effect of 90% (IC90) is over 16 µM. The IC50 (HEPG2TOX_HILL_SLOPE 6.45, HEPG2TOX_R_SQUARED 0.505, PBLUC_HILL_SLOPE 19.5, PBLUC_R_SQUARED 0.258, read-out: LUCIFERASE INFECTION ASSAY - IC50) came to 15.4 µM.

`CC(C)c1ccccc1-n1c(SCC(=O)N2CCc3ccccc3C2)nc2ccccc2c1=O`: the IC90 is over 10 µM. Moreover, the IC50 (FFLUC_HILL_SLOPE 14.4, FFLUC_R_SQUARED 0.575, read-out: LUCIFERASE INFECTION ASSAY - IC50) is over 10 µM.

For the compound `CC(C)N(Cc1nc(=O)c2ccccc2[nH]1)C(=O)COc1ccccc1Cc1ccccc1`, the IC90 is over 10 µM. Moreover, under setting [1], the IC50 is over 10 µM.

Regarding `O=C(NCc1ccccc1CN1CCOCC1)c1cccc(C(F)(F)F)c1`, the IC90 was over 10 µM. Further, the IC50 under setting [1] is over 10 µM.

Turning to `CC/C=C1/CC(=O)N(c2ccccc2)C1=O`, the IC90 was determined as 14.2 µM. In addition, the IC50 (PBLUC_HILL_SLOPE 3.2, PBLUC_R_SQUARED 0.213, read-out: LUCIFERASE INFECTION ASSAY - IC50) is 7.15 µM.

Take `c1ccc(-c2cc(NCCCn3ccnc3)nc3ccccc23)cc1`: the IC90 stood at 8.58 µM. For the same compound, the IC50 (PBLUC_HILL_SLOPE 4.01, PBLUC_R_SQUARED 0.225, read-out: LUCIFERASE INFECTION ASSAY - IC50) stood at 4.96 µM.

As to `CC(=O)c1cccc(-c2cnc3ccc(-c4cncnc4)nn23)c1`, the IC90 amounted to 3.69 µM. For the same compound, the IC50 (HEPG2TOX_HILL_SLOPE 1.11, HEPG2TOX_R_SQUARED 0.828, PBLUC_HILL_SLOPE 6.15, PBLUC_R_SQUARED 0.481, read-out: LUCIFERASE INFECTION ASSAY - IC50) came to 2.58 µM.

Regarding `CN(C)S(=O)(=O)c1ccc(SCC(=O)c2ccc(C(C)(C)C)cc2)nc1`, the IC90 came out at 5.05 µM. In addition, the IC50 (PBLUC_HILL_SLOPE 8.24, PBLUC_R_SQUARED 0.558, read-out: LUCIFERASE INFECTION ASSAY - IC50) amounted to 3.87 µM.

On to `Cc1ccc(Br)cc1NC(=O)C(C)NC(=O)OC(C)(C)C` (stereo unspecified), for which the IC90 is over 10 µM. Further, the IC50 under setting [1] was over 10 µM.

As to `O=C(NNC(=O)c1ccccc1OCC1CCCO1)c1cc2ccccc2cc1O` (stereo unspecified), the IC90 turned out to be 4.01 µM. Besides, for the setting “HEPG2TOX_HILL_SLOPE 0.895, HEPG2TOX_R_SQUARED 0.962, PBLUC_HILL_SLOPE 14.5, PBLUC_R_SQUARED 0.545, read-out: LUCIFERASE INFECTION ASSAY - IC50”, the IC50 was 3.45 µM.

As for `Clc1ccccc1CN(Cc1nc2ccccc2[nH]1)Cc1nc2ccccc2[nH]1`, the IC90 was 4.32 µM. In addition, the IC50 (FFLUC_HILL_SLOPE 12.2, FFLUC_R_SQUARED 0.134, HEPG2TOX_HILL_SLOPE 11.4, HEPG2TOX_R_SQUARED 0.932, PBLUC_HILL_SLOPE 13.3, PBLUC_R_SQUARED 0.326, read-out: LUCIFERASE INFECTION ASSAY - IC50) stood at 3.67 µM.

Turning to `Oc1ccc(Br)c(/C=C/c2ccc3cccc(O)c3n2)c1`, the IC90 is over 9.64 µM. For the same compound, the IC50 (HEPG2TOX_HILL_SLOPE 7.26, HEPG2TOX_R_SQUARED 0.426, read-out: LUCIFERASE INFECTION ASSAY - IC50) is over 9.64 µM.

As to `Cn1c(C(C#N)c2nc(C#N)c(C#N)nc2Cl)nc2ccccc21` (stereo unspecified), the IC90 is over 10 µM. Besides, under “FFLUC_HILL_SLOPE 16, FFLUC_R_SQUARED 0.432, read-out: LUCIFERASE INFECTION ASSAY - IC50”, the IC50 is over 10 µM.

Usually IC50 stands for the concentration needed to halve the response being measured. What is called IC90 is the point of the concentration-response curve where the effect stands at 90%.
